Data from ChEMBL document CHEMBL1201862, “PubChem BioAssay data set” (2004).
Active and inactive are the calls of the source.

Experiments:
Melanocortin receptor 4 = Melanocortin receptor 4 (Homo sapiens, UniProt P32245); test: inhibitors of MC4R cAMP signaling – cell-based, TR-FRET, biased antagonists, dose response (AID 602298); format: functional;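 also: antagonist potency against agonist-stimulated cAMP production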
[1] = cAMP pathway inhibition in counterscreen cell line – TR-FRET cAMP detection, counter-screen for MC4R biased antagonist project, dose response (AID 602305); format: functional, cell-based;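 also: U2OS cells stimulated with forskolin near its EC80 as the cAMP inducer; potency is for inhibition of forskolin-stimulated cAMP signaling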
[2] = target: Neurotensin receptor type 1 (Homo sapiens, UniProt P30989); format: functional;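 also: Image-based confirmatory dose-response assay measuring agonist activity at NTR1; NTR1-expressing U2OS osteosarcoma cells imaged for beta-arrestin GFP spot formation; agonist potency where compounds increase beta-arrestin recruitment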
HEK293 [3] = test: cells; format: functional, cell-based; settings: Homo sapiens
[4] = Luminescence Cell-Based Dose Retest to Confirm Inhibitors of Cancer Stem Cells. [Related pubchem assays (depositor defined):AID2717, AID2721]; format: functional; settings: Homo sapiens
HEK293 [5] = test: NOD2 signaling inhibitors in MDP-stimulated cells, cell-based, uHTS, luminescence (AID 2001); format: functional; settings: Homo sapiens
[6] = target: T1, Acyl-homoserine lactone acylase PvdQ (Pseudomonas aeruginosa (strain LESB58), UniProt Q9I194); test: PvdQ acylase enzyme activity blockers – biochemical, fluorescence, plate reader and imaging, cherry-picks, dose response (AID 493231)
T1 sequence (Q9I194 whole entry): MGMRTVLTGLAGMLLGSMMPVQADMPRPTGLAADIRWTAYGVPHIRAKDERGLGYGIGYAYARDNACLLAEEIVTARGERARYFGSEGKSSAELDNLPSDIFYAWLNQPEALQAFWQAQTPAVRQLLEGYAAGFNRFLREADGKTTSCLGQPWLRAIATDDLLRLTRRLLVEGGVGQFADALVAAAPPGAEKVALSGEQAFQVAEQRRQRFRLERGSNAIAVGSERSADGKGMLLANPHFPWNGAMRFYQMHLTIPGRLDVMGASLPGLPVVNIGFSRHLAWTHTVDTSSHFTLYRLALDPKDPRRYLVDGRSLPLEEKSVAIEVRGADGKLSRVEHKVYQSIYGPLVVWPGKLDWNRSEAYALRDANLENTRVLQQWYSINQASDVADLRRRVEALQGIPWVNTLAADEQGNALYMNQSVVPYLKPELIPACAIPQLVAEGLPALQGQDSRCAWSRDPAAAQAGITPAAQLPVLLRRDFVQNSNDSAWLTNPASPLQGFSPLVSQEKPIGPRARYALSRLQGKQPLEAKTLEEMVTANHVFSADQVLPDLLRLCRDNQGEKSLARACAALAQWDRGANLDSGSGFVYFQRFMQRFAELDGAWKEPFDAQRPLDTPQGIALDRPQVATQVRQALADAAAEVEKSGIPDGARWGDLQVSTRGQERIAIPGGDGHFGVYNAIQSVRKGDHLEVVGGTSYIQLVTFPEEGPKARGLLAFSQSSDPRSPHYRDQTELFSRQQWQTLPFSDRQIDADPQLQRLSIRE

HEK293 [7] = test: cells; format: functional, cell-based; settings: Homo sapiens; remark: listed apart in the source
HEK293 [8] = test: inhibition of NOD1-driven NF-kB reporter – cell-based, luminescence, uHTS, primary screen (AID 1578); format: functional; settings: Homo sapiens
Protein skinhead-1 = target: T2, Protein skinhead-1 (Caenorhabditis elegans, UniProt P34707); format: functional
T2 sequence (P34707 whole entry): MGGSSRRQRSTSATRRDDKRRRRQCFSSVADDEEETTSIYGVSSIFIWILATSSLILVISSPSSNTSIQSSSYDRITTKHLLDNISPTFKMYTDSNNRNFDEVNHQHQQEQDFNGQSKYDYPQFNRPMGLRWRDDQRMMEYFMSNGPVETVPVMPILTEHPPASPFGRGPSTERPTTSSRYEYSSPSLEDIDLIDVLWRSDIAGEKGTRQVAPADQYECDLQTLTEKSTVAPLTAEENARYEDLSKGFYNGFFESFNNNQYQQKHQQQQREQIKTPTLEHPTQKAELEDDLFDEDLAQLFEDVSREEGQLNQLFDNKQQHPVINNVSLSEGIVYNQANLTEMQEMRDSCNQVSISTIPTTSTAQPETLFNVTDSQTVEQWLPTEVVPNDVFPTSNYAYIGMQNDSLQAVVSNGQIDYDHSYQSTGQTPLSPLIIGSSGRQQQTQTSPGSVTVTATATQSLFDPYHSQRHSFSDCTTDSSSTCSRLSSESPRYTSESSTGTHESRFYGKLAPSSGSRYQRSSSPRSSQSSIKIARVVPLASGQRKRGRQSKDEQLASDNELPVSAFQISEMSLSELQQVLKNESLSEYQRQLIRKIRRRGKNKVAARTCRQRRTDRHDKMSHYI

[9] = microbe, parasite or virus in culture; format: functional; settings: Mycobacterium tuberculosis
[10] = target: Alkaline phosphatase, placental type (Homo sapiens, UniProt P05187); test: human placental alkaline phosphatase inhibition – biochemical, luminescence, confirmation (AID 1512); format: functional
Large T antigen = Large T antigen (Simian virus 40, UniProt P03070); format: functional, Betapolyomavirus macacae;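 also: Confirmatory-stage PubChem screen for compounds that inhibit SV40 T antigen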
Beta-galactosidase = Beta-galactosidase (Escherichia coli, UniProt Q8VNN2); test: detection-enzyme interference by beta-gal modulators – biochemical, E. coli enzyme, set 3, artefact control for CCR6 antagonist project, dose response (AID 504712); format: functional
[11] = target: T3, C-C chemokine receptor type 6 (Homo sapiens, UniProt P51684); test: antagonism of CCR6 beta-arrestin recruitment – cell-based, luminescent beta-arrestin readout, dose response (AID 504728); format: functional
T3 sequence (P51684 whole entry): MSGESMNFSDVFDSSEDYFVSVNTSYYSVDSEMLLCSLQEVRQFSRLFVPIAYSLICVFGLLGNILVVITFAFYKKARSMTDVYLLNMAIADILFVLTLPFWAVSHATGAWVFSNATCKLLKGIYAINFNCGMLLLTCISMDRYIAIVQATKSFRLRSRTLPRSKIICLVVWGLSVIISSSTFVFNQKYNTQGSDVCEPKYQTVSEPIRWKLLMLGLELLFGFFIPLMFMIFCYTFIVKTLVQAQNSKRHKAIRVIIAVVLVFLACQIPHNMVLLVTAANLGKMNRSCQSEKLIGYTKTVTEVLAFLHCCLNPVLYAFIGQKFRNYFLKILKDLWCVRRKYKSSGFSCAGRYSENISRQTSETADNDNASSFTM

[12] = target: Glucose-6-phosphate 1-dehydrogenase (Homo sapiens, UniProt P11413); test: inhibition of Homo sapiens G6PD, dose series – biochemical, fluorescence, selectivity assay for P. falciparum G6PD inhibitor project, dose response (AID 504792); format: functional
[13] = target: DNA dC->dU-editing enzyme APOBEC-3A (Homo sapiens, UniProt P31941); test: A3A deaminase inhibition for selectivity – biochemical, dose response (AID 504722); format: functional
[14] = target: DNA dC->dU-editing enzyme APOBEC-3G (Homo sapiens, UniProt Q9HC16); test: Dose Response confirmation of small molecule APOBEC3G DNA Deaminase Inhibitors via a fluorescence-based single-stranded DNA deaminase assay. [Related pubchem assays (depositor defined):AID493012, AID493028]; format: functional
[15] = target: T4, Calpain-2 catalytic subunit (Sus scrofa, UniProt P43367); test: m-calpain protease blockers, concentration series – biochemical, fluorogenic peptide substrate, dose response (AID 1420); format: functional
T4 sequence (P43367 whole entry): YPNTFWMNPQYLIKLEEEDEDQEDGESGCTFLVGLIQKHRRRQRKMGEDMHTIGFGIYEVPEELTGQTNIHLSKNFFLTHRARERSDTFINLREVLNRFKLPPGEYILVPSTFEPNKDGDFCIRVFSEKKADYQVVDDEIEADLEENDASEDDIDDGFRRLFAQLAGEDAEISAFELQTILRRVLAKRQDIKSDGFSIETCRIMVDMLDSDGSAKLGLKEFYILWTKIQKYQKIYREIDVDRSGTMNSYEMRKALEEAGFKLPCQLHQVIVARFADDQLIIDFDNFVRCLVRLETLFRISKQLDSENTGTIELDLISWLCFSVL

Cytochrome P450 1A2 = target: T5, Cytochrome P450 1A2 (Homo sapiens, UniProt P05177);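 also: PubChem cytochrome P450 panel assay, CYP1A2 panel member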
T5 sequence (P05177 whole entry): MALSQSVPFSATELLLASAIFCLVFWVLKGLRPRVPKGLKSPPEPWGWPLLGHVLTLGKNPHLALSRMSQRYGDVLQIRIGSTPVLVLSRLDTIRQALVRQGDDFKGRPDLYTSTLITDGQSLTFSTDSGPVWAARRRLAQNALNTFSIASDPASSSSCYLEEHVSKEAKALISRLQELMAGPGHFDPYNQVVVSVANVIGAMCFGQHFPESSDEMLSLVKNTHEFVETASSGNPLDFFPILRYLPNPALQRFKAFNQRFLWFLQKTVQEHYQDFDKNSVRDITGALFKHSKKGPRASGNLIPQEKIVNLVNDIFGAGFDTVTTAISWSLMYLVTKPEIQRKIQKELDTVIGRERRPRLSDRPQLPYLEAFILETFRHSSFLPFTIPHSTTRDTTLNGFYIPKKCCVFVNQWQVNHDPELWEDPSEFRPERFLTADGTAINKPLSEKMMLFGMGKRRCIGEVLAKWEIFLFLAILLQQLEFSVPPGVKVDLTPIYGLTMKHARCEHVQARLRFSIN

SUMO-activating enzyme = SUMO-activating enzyme (Homo sapiens, UniProt Q9UBT2); test: blockers of UBC9-mediated SUMO conjugation – biochemical, AlphaScreen, SUMOylation inhibitor project, confirmation (AID 2018); format: functional
Cytochrome P450 2C9 = Cytochrome P450 2C9 (Homo sapiens, UniProt P11712)
Cytochrome P450 3A4 = Cytochrome P450 3A4 (Homo sapiens, UniProt P08684);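 also: CYP3A4 tested as one member of a cytochrome P450 panel screen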
Sequence of Cytochrome P450 3A4 (P08684 whole entry): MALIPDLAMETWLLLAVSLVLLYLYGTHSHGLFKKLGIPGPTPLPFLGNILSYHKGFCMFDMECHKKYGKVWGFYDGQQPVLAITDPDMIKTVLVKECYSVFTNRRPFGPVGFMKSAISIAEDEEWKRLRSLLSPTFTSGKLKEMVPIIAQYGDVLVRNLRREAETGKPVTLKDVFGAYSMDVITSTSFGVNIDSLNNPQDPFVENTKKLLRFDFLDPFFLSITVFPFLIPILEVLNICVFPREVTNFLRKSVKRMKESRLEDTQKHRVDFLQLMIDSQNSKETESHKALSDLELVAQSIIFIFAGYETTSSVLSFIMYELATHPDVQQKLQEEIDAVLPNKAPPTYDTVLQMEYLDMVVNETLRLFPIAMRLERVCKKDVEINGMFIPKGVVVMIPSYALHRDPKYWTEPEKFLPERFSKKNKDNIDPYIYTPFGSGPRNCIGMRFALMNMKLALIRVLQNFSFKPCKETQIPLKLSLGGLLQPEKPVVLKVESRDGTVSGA

Sequence of Melanocortin receptor 4 (P32245 whole entry): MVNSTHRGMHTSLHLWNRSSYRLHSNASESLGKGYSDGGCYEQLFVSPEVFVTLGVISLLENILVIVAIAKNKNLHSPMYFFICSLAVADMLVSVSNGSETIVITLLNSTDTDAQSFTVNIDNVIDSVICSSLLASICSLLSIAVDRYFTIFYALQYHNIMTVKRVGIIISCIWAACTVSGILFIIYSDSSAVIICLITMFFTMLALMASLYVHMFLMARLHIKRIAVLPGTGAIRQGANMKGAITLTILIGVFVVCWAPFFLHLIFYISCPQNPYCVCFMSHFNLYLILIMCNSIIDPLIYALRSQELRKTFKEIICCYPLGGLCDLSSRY
Sequence of DNA dC->dU-editing enzyme APOBEC-3G (Q9HC16 whole entry): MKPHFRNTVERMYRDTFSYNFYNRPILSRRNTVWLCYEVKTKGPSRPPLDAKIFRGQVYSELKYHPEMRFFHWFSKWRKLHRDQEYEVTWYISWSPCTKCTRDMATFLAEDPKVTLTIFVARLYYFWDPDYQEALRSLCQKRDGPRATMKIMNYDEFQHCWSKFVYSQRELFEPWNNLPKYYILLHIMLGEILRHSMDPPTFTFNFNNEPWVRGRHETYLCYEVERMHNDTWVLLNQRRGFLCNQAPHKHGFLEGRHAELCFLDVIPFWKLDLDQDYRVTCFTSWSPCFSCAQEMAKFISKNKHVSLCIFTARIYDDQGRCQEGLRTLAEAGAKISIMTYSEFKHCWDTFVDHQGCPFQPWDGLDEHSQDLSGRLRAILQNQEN
Sequence of Beta-galactosidase (Q8VNN2 whole entry): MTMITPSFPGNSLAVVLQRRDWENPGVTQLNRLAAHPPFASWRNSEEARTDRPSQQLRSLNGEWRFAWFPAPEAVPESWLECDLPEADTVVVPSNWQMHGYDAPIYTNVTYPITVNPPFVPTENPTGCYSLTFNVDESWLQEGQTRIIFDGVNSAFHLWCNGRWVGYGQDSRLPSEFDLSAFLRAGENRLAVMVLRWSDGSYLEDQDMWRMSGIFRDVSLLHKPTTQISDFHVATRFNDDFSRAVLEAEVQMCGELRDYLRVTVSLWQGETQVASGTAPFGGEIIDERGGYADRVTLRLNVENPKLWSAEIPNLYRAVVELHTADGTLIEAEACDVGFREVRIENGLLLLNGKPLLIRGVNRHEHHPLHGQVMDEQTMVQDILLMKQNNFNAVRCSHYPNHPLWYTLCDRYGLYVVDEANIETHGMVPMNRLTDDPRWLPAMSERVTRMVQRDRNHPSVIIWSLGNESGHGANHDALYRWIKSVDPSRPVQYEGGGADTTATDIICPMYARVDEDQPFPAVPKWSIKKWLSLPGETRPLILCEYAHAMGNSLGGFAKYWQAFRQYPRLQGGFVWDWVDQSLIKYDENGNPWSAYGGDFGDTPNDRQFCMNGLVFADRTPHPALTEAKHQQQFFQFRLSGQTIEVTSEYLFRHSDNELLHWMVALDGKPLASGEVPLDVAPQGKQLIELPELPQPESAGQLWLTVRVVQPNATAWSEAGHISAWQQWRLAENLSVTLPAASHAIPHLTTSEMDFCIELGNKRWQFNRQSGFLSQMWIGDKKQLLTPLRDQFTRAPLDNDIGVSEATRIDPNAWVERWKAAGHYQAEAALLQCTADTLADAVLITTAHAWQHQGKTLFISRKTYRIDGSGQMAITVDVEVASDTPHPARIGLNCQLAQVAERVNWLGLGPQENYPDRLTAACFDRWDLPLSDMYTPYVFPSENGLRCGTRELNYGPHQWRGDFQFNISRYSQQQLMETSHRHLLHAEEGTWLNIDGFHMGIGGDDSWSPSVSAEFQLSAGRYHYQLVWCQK
Sequence of DNA dC->dU-editing enzyme APOBEC-3A (P31941 whole entry): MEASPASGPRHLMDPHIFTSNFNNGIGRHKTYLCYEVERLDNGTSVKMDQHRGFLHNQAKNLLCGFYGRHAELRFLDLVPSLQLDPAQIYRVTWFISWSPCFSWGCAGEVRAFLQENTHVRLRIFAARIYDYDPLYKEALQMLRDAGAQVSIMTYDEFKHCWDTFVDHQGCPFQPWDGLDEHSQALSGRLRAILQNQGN
Sequence of Cytochrome P450 2C9 (P11712 whole entry): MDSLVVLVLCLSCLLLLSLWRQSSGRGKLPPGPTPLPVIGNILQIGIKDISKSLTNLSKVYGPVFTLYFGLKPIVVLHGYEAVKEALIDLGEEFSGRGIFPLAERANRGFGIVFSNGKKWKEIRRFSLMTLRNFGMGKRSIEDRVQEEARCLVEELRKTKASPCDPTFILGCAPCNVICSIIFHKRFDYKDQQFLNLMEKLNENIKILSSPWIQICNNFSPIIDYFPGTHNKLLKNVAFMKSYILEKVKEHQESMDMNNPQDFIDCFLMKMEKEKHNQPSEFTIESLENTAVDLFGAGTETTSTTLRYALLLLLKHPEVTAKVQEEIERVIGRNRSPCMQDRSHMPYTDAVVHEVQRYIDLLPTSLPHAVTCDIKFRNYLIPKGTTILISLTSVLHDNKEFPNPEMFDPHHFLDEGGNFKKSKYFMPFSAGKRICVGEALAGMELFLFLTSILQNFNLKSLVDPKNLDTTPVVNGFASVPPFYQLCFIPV
Sequence of Alkaline phosphatase, placental type (P05187 whole entry): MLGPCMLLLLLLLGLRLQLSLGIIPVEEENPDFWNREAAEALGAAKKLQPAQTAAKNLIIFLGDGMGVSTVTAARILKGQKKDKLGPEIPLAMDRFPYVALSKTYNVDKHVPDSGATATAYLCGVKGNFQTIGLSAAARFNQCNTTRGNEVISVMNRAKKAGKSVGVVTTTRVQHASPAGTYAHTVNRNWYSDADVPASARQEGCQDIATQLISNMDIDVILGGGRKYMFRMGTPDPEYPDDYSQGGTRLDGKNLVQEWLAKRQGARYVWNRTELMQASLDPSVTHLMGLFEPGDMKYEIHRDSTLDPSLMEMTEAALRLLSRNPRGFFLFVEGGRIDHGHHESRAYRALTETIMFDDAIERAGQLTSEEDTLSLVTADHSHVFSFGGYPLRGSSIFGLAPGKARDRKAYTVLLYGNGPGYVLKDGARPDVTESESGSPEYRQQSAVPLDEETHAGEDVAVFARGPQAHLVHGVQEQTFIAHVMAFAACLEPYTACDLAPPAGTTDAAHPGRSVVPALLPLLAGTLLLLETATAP
Sequence of Glucose-6-phosphate 1-dehydrogenase (P11413 whole entry): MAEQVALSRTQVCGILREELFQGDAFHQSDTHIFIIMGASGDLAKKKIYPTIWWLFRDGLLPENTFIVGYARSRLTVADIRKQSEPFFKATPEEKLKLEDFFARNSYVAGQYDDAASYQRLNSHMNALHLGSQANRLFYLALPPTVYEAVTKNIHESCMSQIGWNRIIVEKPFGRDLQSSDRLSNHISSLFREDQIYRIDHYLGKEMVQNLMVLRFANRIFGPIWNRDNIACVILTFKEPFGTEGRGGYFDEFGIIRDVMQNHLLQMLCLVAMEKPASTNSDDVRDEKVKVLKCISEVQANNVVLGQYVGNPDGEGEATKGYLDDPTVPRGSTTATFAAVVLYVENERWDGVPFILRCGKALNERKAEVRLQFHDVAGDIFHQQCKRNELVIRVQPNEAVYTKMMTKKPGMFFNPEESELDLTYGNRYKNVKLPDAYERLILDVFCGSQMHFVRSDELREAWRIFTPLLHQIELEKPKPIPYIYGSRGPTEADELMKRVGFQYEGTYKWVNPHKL
Sequence of Large T antigen (P03070 whole entry): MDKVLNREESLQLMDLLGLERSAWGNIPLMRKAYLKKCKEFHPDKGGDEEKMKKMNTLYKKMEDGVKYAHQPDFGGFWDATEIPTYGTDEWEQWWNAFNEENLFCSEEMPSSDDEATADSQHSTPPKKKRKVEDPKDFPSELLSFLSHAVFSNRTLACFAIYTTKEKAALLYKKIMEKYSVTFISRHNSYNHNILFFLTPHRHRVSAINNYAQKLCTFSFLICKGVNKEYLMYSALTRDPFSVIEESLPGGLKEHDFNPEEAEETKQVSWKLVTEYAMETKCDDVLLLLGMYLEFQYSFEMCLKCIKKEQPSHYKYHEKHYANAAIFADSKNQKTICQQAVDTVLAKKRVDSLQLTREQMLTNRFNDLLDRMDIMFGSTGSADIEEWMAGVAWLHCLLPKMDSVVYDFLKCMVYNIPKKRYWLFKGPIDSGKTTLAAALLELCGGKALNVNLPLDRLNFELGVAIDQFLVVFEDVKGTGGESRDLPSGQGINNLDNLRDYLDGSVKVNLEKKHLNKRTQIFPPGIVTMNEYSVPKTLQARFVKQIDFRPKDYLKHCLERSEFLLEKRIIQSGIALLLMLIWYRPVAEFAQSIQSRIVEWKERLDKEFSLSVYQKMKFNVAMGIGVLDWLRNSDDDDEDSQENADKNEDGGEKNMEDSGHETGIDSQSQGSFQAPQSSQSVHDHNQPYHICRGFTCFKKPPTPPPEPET

CCCOc1ccc(C(=O)c2ccccc2C(=O)OC2CCOC2=O)cc1OCCC (stereo not given)
IC50 (Melanocortin receptor 4): > 64.6 µM (inactive)
IC50 [1]: > 64.6 µM (inactive)
EC50 [2]: 19.8 µM (active)

Clc1ccc(Nc2ncnc3ccc(Br)cc23)cc1
IC50 (HEK293 [3]): 0.95 µM (active)
AC50 [4]: 4.4 µM (active)
IC50 (HEK293 [5]): 1.47 µM (active)
AC50 [6]: 37.8 µM (active)
IC50 (HEK293 [7]): > 20 µM (inactive)
EC50 (HEK293 [8]): 3.06 µM (active)
IC50 (Protein skinhead-1): > 100 µM (inactive)

c1ccc(Cn2c(CNc3nc4ccccc4n3CCN3CCCCC3)nc3ccccc32)cc1
IC50 (Melanocortin receptor 4): > 64.6 µM (inactive)
IC50 [1]: > 64.6 µM (inactive)
CC50 [9]: 27.1 µM (active)
IC50 [10]: > 100 µM (inactive)

COc1ccccc1N1C(=O)C=C(Sc2nc(C)cc(C)n2)C1=O
IC50 (Large T antigen): 24.3 µM (active)
IC50 (Beta-galactosidase): > 66.6 µM (inactive)
IC50 [11]: > 66.6 µM (inactive)
IC50 [12]: > 80 µM (inactive)

Sc1cnc2ccccc2n1
IC50 [13]: > 100 µM (inactive)
IC50 [14]: 7.85 µM (active)

Cc1ccccc1NC(=O)c1ccc(N/N=C/c2ccccc2O)c([N+](=O)[O-])c1
IC50 [15]: 18.9 µM (not active)
AC50 (Cytochrome P450 1A2): 14.1 µM (inconclusive)
IC50 (SUMO-activating enzyme): 67.3 µM (active)
AC50 (Cytochrome P450 2C9): inconclusive
AC50 (Cytochrome P450 3A4): 4.47 µM (inconclusive)
